# Test results as given in patent US20250064983A1, “COMPOSITIONS AND METHODS FOR TREATING A CARDIAC DISEASE” (The Children's Medical Center Corporation, priority 2022, published 2025).
# What was measured:
# Format in all cases: in vivo, mouse
# [1] = tested on: CaMKII; experiment: phosphorylation of phospholamban (PLB) at threonine-17 in whole heart lysates exposed to isoproterenol; conditions: exposed to isoproterenol (ISO), FIG. 3
# Protocol: FIG. 3 provides a chart, a capillary Western image, and a plot showing the effects of the indicated constructs, which are described in FIG. 2D, on CaMKII activity in vivo. To confirm suppression of CaMKII activation in vivo, phosphorylation of phospholamban (PLB) at threonine-17, a known target of CaMKII, was analyzed from whole heart lysates. The middle panel of FIG. 3 provides a capillary Western image showing glyceraldehyde-3-phosphate dehydrogenase polypeptide (GAPDH) expression in cells contacted (+) or not contacted (−) with isoproterenol (ISO), as well as the levels of phosphorylated PLB (pPLB) and non-phosphorylated PLB (PLB). The right panel of FIG. 3 provides a plot showing the ratio of pPLB to PLB in hearts treated with no ISO or with ISO and mCherry (the “ISO” sample), AIP, AIP×5, AIP-FKBP12.6, CN19o, CN19oX3, or CN19o-FKBP12.6, which are described in FIG. 2D.
# To confirm suppression of CaMKII activation in vivo, phosphorylation of phospholamban (PLB) at threonine-17, a known target of CaMKII, was evaluated in heart tissue from mice and whole heart lysates exposed to isoproterenol (ISO) (FIG. 3). Exposure of cardiac cells to ISO induced phosphorylation of PLB by CaMKII (FIG. 3).
# [2] = tested on: LKB Flox/Flox mice; experiment: Example 4: beat to beat variation in LKB Flox/Flox mice with NPPA-Cre (atrial fibrillation model); conditions: co-injection of NPPA-Cre and AIP×5-mcherry AAV; 2, 4 and 6 weeks
# Protocol: FIGS. 7A and 7B provide plots showing the impact of AIP×5 administration on atrial fibrillation in a mouse model. LKB Flox/Flox mice were double injected with AAV-NPPA-Cre and AAV-AIP×5-mcherry (see FIG. 6). FIG. 7A provides plots showing results from an experiment where mice positive for the LKB1 flanked by LoxP sites (LKB1flox/flox) were injected with either AAV9-NPPA-RFP, AAV9-NPPA-Cre or double injections of AAV9-NPPA-Cre+AAV9-cTnT-AIP×5 at post-natal day 3 (P3). At two week intervals, ECG recordings for 3 minutes were performed under anesthesia. The time difference between two QRS complexes (RR interval) was plotted as a function of the following interval (RR+1). FIG. 7B provides a plot where the standard deviation of the RR intervals for a 1 minute recording was calculated for each animal at the time points shown.
# Experiments were undertaken to evaluate the efficacy of AIP×5 administration in treatment of atrial fibrillation. LKB Flox/Flox mice were double injected with NPPA-Cre and AIP×5-mcherry using an AAV vector. The mice were a model for atrial fibrillation. […] It was evaluated whether co-injection with AAV-AIP×5 would reduce AF. Beat to beat variation in HR, an index of AF frequency, was analyzed by plotting each RR interval (R) versus the RR interval of the subsequent beat (RI) (n=˜500 beats) (FIG. 7A). […] HR beat to beat variation was analyzed at 2 weeks, 4 weeks, and 6 weeks.
# [3] = tested on: RYR2^R176Q/QT and RYR2^R4560I/WT mice; experiment: Example 3: AAV vectors expressing AIP×5 in CPVT animal models; conditions: example written in present tense
# Text: FIG. 6 provides a schematic showing administration of AAV vectors to RYR2^R176Q/WT and RYR2^R4560I/WT mice. […]. The top portion of FIG. 6 provides a schematic showing the components of polynucleotides of the AAV vectors. In FIG. 6, ITR represents “inverted terminal repeat,” CASQ2 represents a calsequestrin 2 enhancer, cTnT represents a “cardiac troponin” promoter, an INT represents a hemoglobin enhancer, AIP×5 represents a multimer containing five autocamtide-2-related inhibitory peptide (AIP) units, mScarlet represents the fluorescent polypeptide mScarlet, nls represents a nuclear localization signal, “stop” represents a stop codon, and WPRE represents a Woodchuck Hepatitis Virus (WHV) Posttranscriptional Regulatory Element.
# AAV vectors expressing AIP×5 or a negative control AIV vector expressing only mScarlet (see FIG. 6) are prepared and administered to RYR2^R176Q/QT and RYR2^R4560I/WT mice, which are animal models of catecholaminergic polymorphic ventricular tachycardia (CPVT). The efficacy of the vectors in reducing symptoms of CPVT is evaluated in the animal models.
sequence,measurement,setting,value
YKKALHRQEAVDALYKKALHRQEAVDALYKKALHRQEAVDALYKKALHRQEAVDALYKKALHRQEAVDAL [AIP×5],PLB phosphorylation (pPLB to PLB),[1],statistically significant decrease in PLB phosphorylation
same,symptoms of AF (beat to beat variation of RR interval),[2],effective in reducing symptoms of AF
same,symptoms of CPVT (ectopy and/or ventricular tachycardia),[3],reduction in symptoms of CPVT
